PubChem BioAssay (NCI)
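A five-concentration, 48-hour dose response in 96-well plates underlies each endpoint, interpolated linearly between surrounding concentrations. TGI denotes the concentration required for complete inhibition of growth.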

Legend:
Assay in all cases: inhibition of tumour cell growth, NCI panel, 48 h
U251 CNS = tested on: U251 CNS
A549 NSCLC = tested on: A549 NSCLC
MDA-N = tested on: MDA-N
UO-31 renal = tested on: UO-31 renal
MDA-MB-435 = tested on: MDA-MB-435
IGROV1 ovarian = tested on: IGROV1 ovarian
MOLT-4 leukemia = tested on: MOLT-4 leukemia
OVCAR-5 ovarian = tested on: OVCAR-5 ovarian
SK-OV-3 ovarian = tested on: SK-OV-3 ovarian
NCI-H522 lung = tested on: NCI-H522 lung
OVCAR-3 ovarian = tested on: OVCAR-3 ovarian
ACHN renal = tested on: ACHN renal
HCT-116 colon = tested on: HCT-116 colon
SF-295 CNS = tested on: SF-295 CNS
OVCAR-8 ovarian = tested on: OVCAR-8 ovarian
OVCAR-4 ovarian = tested on: OVCAR-4 ovarian
HL-60(TB) leukemia = tested on: HL-60(TB) leukemia
K-562 leukemia = tested on: K-562 leukemia
MALME-3M melanoma = tested on: MALME-3M melanoma
NCI-H226 lung = tested on: NCI-H226 lung

| SMILES | TGI (U251 CNS) | TGI (A549 NSCLC) | TGI (MDA-N) | TGI (UO-31 renal) | TGI (MDA-MB-435) | TGI (IGROV1 ovarian) | TGI (MOLT-4 leukemia) | TGI (OVCAR-5 ovarian) | TGI (SK-OV-3 ovarian) | TGI (NCI-H522 lung) | TGI (OVCAR-3 ovarian) | TGI (ACHN renal) | TGI (HCT-116 colon) | TGI (SF-295 CNS) | TGI (OVCAR-8 ovarian) | TGI (OVCAR-4 ovarian) | TGI (HL-60(TB) leukemia) | TGI (K-562 leukemia) | TGI (MALME-3M melanoma) | TGI (NCI-H226 lung) |
| --- | --- | --- | --- | --- | --- | --- | --- | --- | --- | --- | --- | --- | --- | --- | --- | --- | --- | --- | --- | --- |
| COc1ccc2c(c1)c1ccc3c(c1n2C)C(=O)C=CC3=O | 36 µM | 68.7 µM | 24.1 µM | 24.5 µM | 22.7 µM | 28.3 µM | 4.5 µM | 35 µM | 41.3 µM | 7.35 µM | 20.5 µM | 14.9 µM | 14 µM | 56.9 µM | 26.6 µM | 15.6 µM | 4.94 µM | 4.89 µM | 18.8 µM | 32.8 µM |
| Cc1cn(CC2(CO)CCC2)c(=O)[nH]c1=O | > 100 µM | > 100 µM | > 100 µM | > 100 µM | > 100 µM | > 100 µM | > 100 µM | > 100 µM | > 100 µM | > 100 µM | > 100 µM | > 100 µM | > 100 µM | > 100 µM | > 100 µM | > 100 µM | > 100 µM | > 100 µM | > 100 µM | > 100 µM |
| COC(=O)[C@H](Cc1ccccc1)NC(=O)OCC1OC(n2cc(C)c(=O)[nH]c2=O)CC1N=[N+]=[N-] (stereo not given in full) | > 100 µM | > 100 µM | > 100 µM | > 100 µM | > 100 µM | > 100 µM | > 100 µM | > 100 µM | > 100 µM | > 100 µM | > 100 µM | > 100 µM | > 100 µM | > 100 µM | > 100 µM | > 100 µM | > 100 µM | > 100 µM | > 100 µM | > 100 µM |
| CCOC(=O)c1ccc(NCc2ccc3nc(OC)c(OC)nc3c2)cc1 | > 100 µM | > 100 µM | > 100 µM | > 100 µM | > 100 µM | > 100 µM | > 100 µM | > 100 µM | > 100 µM | > 100 µM | > 100 µM | > 100 µM | > 100 µM | > 100 µM | > 100 µM | > 100 µM | > 100 µM | > 100 µM | > 100 µM | > 100 µM |
| Cc1ccc(C(=O)C2C=C(c3ccc(C)cc3)SC3C=CCC32)cc1 (stereo not given) | 32.5 µM | 57.1 µM | 32.3 µM | 29.6 µM | 30 µM | 40.1 µM | 44.9 µM | 44.4 µM | 54.3 µM | 29.6 µM | 31.8 µM | 47.7 µM | 27.8 µM | 39.9 µM | 32.3 µM | 75.7 µM | > 100 µM | > 100 µM | 34.1 µM | 66.1 µM |
| Cc1ccc2c(ccc3ncc(CNc4ccc(NS(C)(=O)=O)cc4)c32)[nH]1 | 72.2 µM | 66 µM | 32.1 µM | 74.7 µM | 31.5 µM | > 100 µM | 44.7 µM | 53.8 µM | 84.2 µM | 35.5 µM | 43.8 µM | > 100 µM | 37.9 µM | 59.2 µM | 81.1 µM | 58.9 µM | 65.3 µM | 46.3 µM | 34.5 µM | 55.6 µM |
| Cc1ccc(F)c2[nH]c(-c3ccccc3)cc(=O)c12 | > 100 µM | > 53.5 µM | > 100 µM | > 50.1 µM | > 100 µM | > 100 µM | > 100 µM | > 31.3 µM | > 100 µM | 38.1 µM | > 100 µM | > 100 µM | > 100 µM | 43.5 µM | > 100 µM | > 100 µM | > 100 µM | > 100 µM | > 100 µM | > 100 µM |
| COC(=O)c1ccc(Oc2nc3ccc(C(F)(F)F)cc3nc2-c2ccccc2)cc1 | > 100 µM | > 100 µM | > 100 µM | > 100 µM | > 100 µM | > 100 µM | > 100 µM | > 100 µM | > 100 µM | > 100 µM | > 100 µM | > 100 µM | > 100 µM | > 100 µM | > 100 µM | > 100 µM | > 100 µM | > 100 µM | > 100 µM | > 100 µM |
